{"source": "patent US11279708B2", "about": "“Amidino- and amino-rocaglates as novel translation inhibitors and anticancer agents” (priority 2019, dated 2022)", "key": {"[1]": {"system": "eIF4A-dependent translation", "assay": "in vitro translation assay, bicistronic FF/HCV/Ren reporter mRNA in Krebs-2 extracts", "type": "biochemical", "conditions": "for pIC50 / translation inhibition (in words): bicistronic FF/HCV/Ren mRNA; for pIC50: FIG. 14/15, read-out: IC50, inhibition of cap-dependent translation (FF relative to REN)", "method": "Structure-Activity Relationships. With a number of amidino-rocaglates and amino-rocaglates in hand, we evaluated their inhibition of eIF4A-dependent translation using an in vitro assay as depicted in FIG. 14, where a bicistronic reporter mRNA was designed for translation in Krebs-2 extracts. In FIG. 14 the following description applies (a) IC50 was determined from fitted sigmoid curves; […] indicates the concentration of compound that inhibits cap-dependent translation by 50%, which was normalized by cap-independent translation. For its determination, the bicistronic reporter FF/HCV/Ren mRNA was used to produce Firefly luciferase (cap-dependent) and Renilla luciferase (cap-independent) in Krebs-2 extracts in the presence of indicated compounds at various concentrations. In particular, translation of Firefly luciferase (FF) is cap-dependent and depends on eIF4A activity; in contrast, translation of Renilla luciferase (REN) utilizes the HCV internal ribosome entry site (IRES) which functions independently of eIF4A. IC50's were determined by the inhibition of FF relative to REN obtained in the presence of compound relative to vehicle controls and normalized to REN as an internal control. […] In accordance with the eIF4A-RNA-rocaglamide (2) co-crystallographic analysis (FIG. 4), the amide carbonyl of 2 interacts with Gln195 of eIF4A as a H-bond acceptor, while the tertiary hydroxyl of 2 serves as a H-bond donor to an RNA base. […] To further verify the hypothesis, amidino-rocaglates (pKa of N—H˜26.7-30.7 in DMSO, strong H-bond donors) and amino-rocaglates (pKa of N—H˜36 to 44 in DMSO, weak H-bond donors) were next evaluated. […] Conversely, benzyl amidine 9e had IC50=60 nM, whereas the methylene tether may allow conformational adjustment to avoid rigid repulsion in the binding pocket.\nThe rocaglate collection was also tested in in vitro translation assays using cell-free extracts with a previously described bicistronic mRNA containing the HCV IRES, which is not dependent on eIF4A activity and served as an internal control (FIG. 19C).\n(§1) In Vitro Translation Assays. In vitro translation assays performed in Krebs-2 cell extracts were supplemented with 5 mM MgCl2, 30 mM Tris-HCl (pH 7.5), 1.5 mM ATP, 0.1 mM GTP, 0.6 mM CTP, 10 mM dipotassium creatine phosphate, 80 μg/mL creatine kinase, and 0.04 mM amino acids. The specified mRNA reporters were added to each reaction at a final concentration of 10 ng/μL. The translation reactions were incubated with or without compound for 60 minutes at 30° C. prior to the measurement of luciferase activities.\n(§2) FIGS. 19A-19C. Rocaglate activity profiling. 19A. Assessing eIF4A1:poly r(AG)8 (SEQ ID NO: 2) RNA binding by FP in the presence of 10 μM rocaglate. Values are expressed relative to vehicle controls and data is rank ordered. n=3±SD. 19B. The change in polarization obtained with eIF4A1:poly r(AG)8 (SEQ ID NO: 2) and eIF4A2:poly r(AG)8 (SEQ ID NO: 2) RNA. Pearson r=0.814; p<0.0001. 19C. Inhibition of cap-dependent translation by rocaglates was measured using the indicated mRNA bicistronic reporter (4 ng/ul) in Krebs-2 extracts at a final compound concentration of 2 μM. n=3±SD.\nFIG. 35A-35E are plots showing dose-response curve of FF-HCV-Ren mRNA translation in Krebs extracts with IC50s shown for inhibition of cap-dependent protein synthesis. Values are plotted relative to DMSO controls. n=2 technical replicates performed in duplicate."}, "[2]": {"system": "HEK 293 cells", "assay": "in cellula translation of transfected (AG)10- and (UC)10-FF/HCV/Ren mRNA", "type": "cell-based", "conditions": "compound added 1 h after mRNA transfection, 6 h exposure", "description": "We next asked if differences in behavior among rocaglates towards the (AG)10- and (UC)10-reporters observed in vitro also extended in cellula (FIG. 26B). This was important since in cells, mRNA transcripts need to compete for components of the translation initiation machinery from a complex cellular mRNA pool and this scenario is difficult to recapitulate in experiments using cell-free extracts. Following mRNA transfections, cells were exposed to compound and luciferase activity determined.\nRNA Transfections. HEK 293 cells were transfected in a 24 well plate with 0.25 μg/well of in vitro synthesized capped m^7GpppG(AG)10-FF/HCV/Ren or m^7GpppG(UC)10FF/HCV/Ren mRNA and 1 h later were exposed to the indicated concentrations of compounds for an additional 6 h. Following this, extracts were prepared using passive lysis buffer (PLB, Promega) and luciferase activity measured on a Berthold Lumt LB 9507 luminometer.\nFIGS. 26A-26B. In cellula activity of rocaglates. 26A. Cytotoxicity of rocaglates towards NIH/3T3 (grey circle) and the NIH/3T3 rocaglate-resistant line, eIF4A^em1JP(redtriangle). Cells were exposed to 40 nM compound for 4 days and viability was measured using the SRB assay. n=3±SD. 26B. Rocaglates show different sequence preferences for inhibiting cap-dependent translation in cellula. HEK 293 cells were transfected with 0.5 μg of in vitro synthesized capped (AG)10-FF/HCV/Ren or (UC)10-FF/HCV/Ren mRNA and 1h later exposed to the indicated concentrations of compounds for an additional 6 h, at which time extracts were prepared and luciferase activity measured. n=3 SD.\nFIG. 28. In cellula dose-response of (AG)10- and (UC)10-FF/HCV/Ren mRNAs to hippuristanol and pateamine. Firefly and renilla luciferase activity in response to the indicated compound concentrations (relative to DMSO controls) following mRNA transfections in 293 cells. n=3±SD."}, "[3]": {"system": "cap-dependent translation", "assay": "in vitro translation of (AG)10- and (UC)10-FF/HCV/Ren mRNA reporters in Krebs-2 extracts", "type": "biochemical", "conditions": "cap-proximal (AG)10 or (UC)10", "method": "Rocaglates show differing mRNA targeting spectra in translation assays. The in vitro experiments described above investigating the rocaglate-mediated inhibition of cap-dependent translation were performed at a fixed rocaglate concentration (2 μM) using a generic bicistronic mRNA reporter in Krebs-2 cell-free translation extracts (FIG. 19C). To better assess the consequences of eIF4A:polypurine clamping on the initiation process, we designed a series of bicistronic reporters harboring cap-proximal polypurine tracks of varying lengths in their 5′ leader region (FIG. 22A). […] We reasoned that these reporters would provide a sensitized readout for rocaglate-induce clamping of eIF4A at this location.\nWe next tested the response of mRNA reporters containing cap-proximal (AG)10 or (UC)10 sequences (FIG. 22A). […] The difference in activity observed between CR-1-31-B (23) and silvestrol 1 was not restricted to cap-proximal polypurine tracks, but also observed with reporters where the polypurine/polypyrimidine tracks were situated 15 nt downstream from the cap (FIGS. 24A and 24B).\nas §1\nFIGS. 23A-23C. The presence of polypurines bases in mRNA 5′ leader regions are not universal predictors of rocaglate-responsiveness. FIG. 23A. Schematic diagram of FF/HCV/Ren mRNA reporters containing cap-proximal (AG) or (UC) dinucleotide repeats. 23B. Firefly and renilla luciferase activity in response to the indicated CR-1-31-B (23) concentrations (relative to DMSO controls) in Krebs-2 extracts programmed with 4 ng/uL of the indicated mRNAs. n=3±SD. 23C. Dose response of the indicated compounds in Krebs-2 extracts programmed with 4 ng/μL of the indicated mRNAs. n=3± SD.\nFIG. 23. Dose-response of (AG)10- and (UC)10-FF/HCV/Ren mRNAs to CMLD011167, hippuristanol and pateamine A in vitro. Firefly and renilla luciferase activity in response to the indicated compound concentrations (relative to DMSO controls) in Krebs-2 extracts programmed with 4 ng/μL of the indicated mRNAs. n=3± SD."}, "[4]": {"target": "T1, eIF4A1:poly r(AG)8 RNA (Homo sapiens, UniProt P60842)", "T1 construct": "His6 (N); made in house; host or cells: E. coli BL21 (DE3)", "T1 sequence (P60842 whole entry, species assumed)": "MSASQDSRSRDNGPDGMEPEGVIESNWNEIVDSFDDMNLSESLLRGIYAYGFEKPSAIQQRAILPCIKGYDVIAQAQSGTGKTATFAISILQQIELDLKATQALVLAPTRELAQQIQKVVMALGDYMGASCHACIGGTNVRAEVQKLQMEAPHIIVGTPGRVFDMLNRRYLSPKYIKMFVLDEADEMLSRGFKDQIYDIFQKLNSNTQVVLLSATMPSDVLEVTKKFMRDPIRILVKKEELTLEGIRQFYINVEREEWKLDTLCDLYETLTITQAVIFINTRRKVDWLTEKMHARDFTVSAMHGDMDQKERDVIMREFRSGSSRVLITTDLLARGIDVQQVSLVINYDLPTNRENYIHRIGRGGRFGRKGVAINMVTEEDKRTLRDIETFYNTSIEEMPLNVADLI", "assay": "fluorescence polarization (FP) assay, eIF4A1 binding to FAM-labelled RNA", "conditions": "500 nM eIF4A1, 10 nM FAM-labelled RNA, screen at 10 μM compound", "description": "Rocaglates similarly enhance RNA binding of eIF4A1 and eIF4A2. In order to rapidly evaluate the ability of rocaglates to stimulate binding of eIF4A to RNA, a fluorescence polarization (FP) assay using a FAM (fluorescein amidite)-labelled RNA probe (FIG. 18A) was used. […] Due to the high degree of shared amino acid identity between the two paralogs, their apparent similarity with respect to RNA binding activity and response to CR-1-31-B (23), and the fact that eIF4A1 is essential but eIF4A2 is not, eIF4A1 was used in the majority of our subsequent experiments.\nFluorescence Polarization (FP) Assays. Unless otherwise specified, eIF4A (500 nM) was incubated with 10 nM FAM-labelled RNA for 30 min in FP buffer (14.4 mM HEPES-NaOH (pH 8), 108 mM NaCl, 1 mM MgCl2, 14.4% glycerol, 0.1% DMSO, 2 mM DTT, 1 mM AMPPNP) at room temperature in black low volume 384 well plates (Corning 3820). FP readings were performed on a Pherastar FS microplate reader (BMG Labtech).\nas §2\nFIG. 21. Assessing stimulation of eIF4A1:RNA binding by rocaglates and pateamine. FAM-labelled RNA was incubated in the presence of 500 nM eIF4A1 and the indicated concentrations of compound for 30 min, after which time FP measurements were taken. Limitations in WGD-57-591 availability prevented us from extending the titrations to 100 μM. The change in FP obtained relative to vehicle controls is presented. n=3±SD. FP results of competition assays in which preformed eIF4A1:rocaglate:FAM-poly r(AG)10 complexes were incubated in the presence of poly r(AG)10 (SEQ ID NO: 39) and dissociation measured as a function of time. n=3±SD."}}, "note": "pIC50: −log10 of the molar value.", "data": [{"molecule": "COc1ccc([C@@]23Oc4cc(OC)cc(OC)c4[C@@]24NC(C)=N[C@@]4(O)[C@H](C(=O)N(C)OC)[C@H]3c2ccccc2)cc1", "note": "[9aa]", "values": [{"measurement": "pIC50", "setting": "[1]", "result": 7.23}]}, {"molecule": "CCCCC1=N[C@@]2(O)[C@H](C(=O)OC)[C@@H](c3ccccc3)[C@]3(c4ccc(OC)cc4)Oc4cc(OC)cc(OC)c4[C@]23N1", "note": "[9d]", "values": [{"measurement": "pIC50", "setting": "[1]", "result": 6.73}]}, {"molecule": "COC(=O)[C@@H]1[C@@H](c2ccccc2)[C@]2(c3ccc(OC)cc3)Oc3cc(OC)cc(OC)c3[C@@]23NC(Cc2ccccc2)=N[C@@]13O", "note": "[9e]", "values": [{"measurement": "pIC50", "setting": "[1]", "result": 7.22}]}, {"molecule": "COC(=O)[C@@H]1[C@@H](c2ccccc2)[C@]2(c3ccc(OC)cc3)Oc3cc(OC)cc(OC)c3[C@@]23NC(C(C)(C)C)=N[C@@]13O", "note": "[9f]", "values": [{"measurement": "pIC50", "setting": "[1]", "result": 6.57}]}, {"molecule": "COC(=O)[C@@H]1[C@@H](c2ccccc2)[C@]2(c3ccc(OC)cc3)Oc3cc(OC)cc(OC)c3[C@@]23NC(N)=N[C@@]13O", "note": "[9j]", "values": [{"measurement": "pIC50", "setting": "[1]", "result": 6.90}]}, {"molecule": "COCC1=N[C@@]2(O)[C@H](C(=O)OC)[C@@H](c3ccccc3)[C@]3(c4ccc(OC)cc4)Oc4cc(OC)cc(OC)c4[C@]23N1", "note": "[9k]", "values": [{"measurement": "pIC50", "setting": "[1]", "result": 7.19}]}, {"molecule": "COc1ccc([C@@]23Oc4cc(OC)cc(OC)c4[C@@]24NC(C)=N[C@@]4(O)[C@H](C(=O)N(C)C)[C@H]3c2ccccc2)cc1", "note": "[9z]", "values": [{"measurement": "pIC50", "setting": "[1]", "result": 7.20}]}, {"molecule": "CONC(=O)[C@H]1[C@@H](O)[C@@]2(O)c3c(OC)cc(OC)cc3O[C@@]2(c2ccc(Br)cc2)[C@@H]1c1ccccc1", "note": "[SDS-1-021]", "values": [{"measurement": "inhibition of cap-dependent translation in vitro (in words)", "setting": "[1]; screen at 2 μM compound", "result": "the most potent compound"}]}, {"molecule": "COCCN[C@]12c3c(OC)cc(OC)cc3O[C@@]1(c1ccc(OC)cc1)[C@H](c1ccccc1)[C@@H](C(=O)N(C)C)[C@H]2O", "note": "[compound 18]", "values": [{"measurement": "translation inhibition (in words)", "setting": "[1]", "result": "no translation inhibition"}]}, {"molecule": "COCCN[C@]12c3c(OC)cc(OC)cc3O[C@@]1(c1ccc(OC)cc1)[C@H](c1ccccc1)C[C@@H]2O", "note": "[compound 20]", "values": [{"measurement": "translation inhibition (in words)", "setting": "[1]", "result": "no translation inhibition"}]}, {"molecule": "COCCN[C@]12c3c(OC)cc(OC)cc3O[C@@]1(c1ccc(OC)cc1)[C@H](c1ccccc1)C[C@@H]2N", "note": "[compound 22]", "values": [{"measurement": "translation inhibition (in words)", "setting": "[1]", "result": "no translation inhibition"}]}, {"molecule": "C[C@H]1C[C@@]2(O[C@H]3C[C@H]4[C@@H]5CC[C@H]6C[C@H](O)CC[C@]6(C)[C@H]5[C@@H](O)C[C@]4(C)[C@H]3[C@@]2(C)O)OC1(C)C", "note": "[hippuristanol]", "values": [{"measurement": "inhibition of (AG)10 versus (UC)10 reporter in cellula (in words)", "setting": "[2]", "result": "inhibited both reporters equally"}, {"measurement": "inhibition of (AG)10 versus (UC)10 reporter in vitro (in words)", "setting": "[3]", "result": "equally repressed cap-dependent translation from both"}]}, {"molecule": "CC(/C=C/C(C)=C/[C@@H]1Cc2nc(cs2)[C@@H](C)C[C@@H](N)CC(=O)O[C@@H](C)C/C(C)=C/C=C\\C(=O)O1)=C\\CN(C)C", "note": "[pateamine A]", "values": [{"measurement": "stimulation of eIF4A1:RNA binding (in words)", "setting": "[4]", "result": "potently induced binding to all RNA substrates tested"}, {"measurement": "inhibition of (AG)10 versus (UC)10 reporter in cellula (in words)", "setting": "[2]", "result": "inhibited both reporters equally"}, {"measurement": "inhibition of (AG)10 versus (UC)10 reporter in vitro (in words)", "setting": "[3]", "result": "equally repressed cap-dependent translation from both"}]}]}
